Source: US20230257396A1, “MACROCYCLES AND THEIR USE” (BLOSSOMHILL THERAPEUTICS, INC., priority 2020, published 2023)

What was measured:
Test in all cases: KINOMEscan kinase binding assay (Eurofins/DiscoveRx), % Ctrl
Conditions in all cases: 1 μM
[1] = biological target: T1, kinases (Homo sapiens, UniProt P10721, L576P)
T1 construct: purchased Eurofins/DiscoveRx; host or cells: E. coli BL21-derived host (T7 phage display) for most kinases; HEK-293 for the rest
Outline: (§1)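 Competition binding: DNA- or phage-tagged kinases (T7 phage in E. coli BL21, or HEK-293-expressed) with immobilized biotinylated ligand beads and test compound, 1 h at room temperature. Bead-bound kinase eluted and quantified by qPCR; % Ctrl = (compound − positive control)/(negative control − positive control) ×100 at a single compound concentration.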

[2] = biological target: T2, kinases (Homo sapiens, UniProt P42684)
T2 construct: purchased Eurofins/DiscoveRx; host or cells: E. coli BL21-derived host (T7 phage display) for most kinases; HEK-293 for the rest
Outline: as §1

[3] = biological target: T3, kinases (Homo sapiens, UniProt P10721, V559D)
T3 construct: purchased Eurofins/DiscoveRx; host or cells: E. coli BL21-derived host (T7 phage display) for most kinases; HEK-293 for the rest
Outline: as §1

[4] = biological target: T4, kinases (Homo sapiens, UniProt P00533)
T4 construct: purchased Eurofins/DiscoveRx; host or cells: E. coli BL21-derived host (T7 phage display) for most kinases; HEK-293 for the rest
Outline: as §1

[5] = system: kinases
Outline: as §1

[6] = biological target: T5, kinases (Homo sapiens, UniProt P10721, A829P)
T5 construct: purchased Eurofins/DiscoveRx; host or cells: E. coli BL21-derived host (T7 phage display) for most kinases; HEK-293 for the rest
Outline: as §1

[7] = biological target: T6, kinases (Homo sapiens, UniProt P36888, D835H)
T6 construct: purchased Eurofins/DiscoveRx; host or cells: E. coli BL21-derived host (T7 phage display) for most kinases; HEK-293 for the rest
T6 sequence (P36888 27-993 D835H): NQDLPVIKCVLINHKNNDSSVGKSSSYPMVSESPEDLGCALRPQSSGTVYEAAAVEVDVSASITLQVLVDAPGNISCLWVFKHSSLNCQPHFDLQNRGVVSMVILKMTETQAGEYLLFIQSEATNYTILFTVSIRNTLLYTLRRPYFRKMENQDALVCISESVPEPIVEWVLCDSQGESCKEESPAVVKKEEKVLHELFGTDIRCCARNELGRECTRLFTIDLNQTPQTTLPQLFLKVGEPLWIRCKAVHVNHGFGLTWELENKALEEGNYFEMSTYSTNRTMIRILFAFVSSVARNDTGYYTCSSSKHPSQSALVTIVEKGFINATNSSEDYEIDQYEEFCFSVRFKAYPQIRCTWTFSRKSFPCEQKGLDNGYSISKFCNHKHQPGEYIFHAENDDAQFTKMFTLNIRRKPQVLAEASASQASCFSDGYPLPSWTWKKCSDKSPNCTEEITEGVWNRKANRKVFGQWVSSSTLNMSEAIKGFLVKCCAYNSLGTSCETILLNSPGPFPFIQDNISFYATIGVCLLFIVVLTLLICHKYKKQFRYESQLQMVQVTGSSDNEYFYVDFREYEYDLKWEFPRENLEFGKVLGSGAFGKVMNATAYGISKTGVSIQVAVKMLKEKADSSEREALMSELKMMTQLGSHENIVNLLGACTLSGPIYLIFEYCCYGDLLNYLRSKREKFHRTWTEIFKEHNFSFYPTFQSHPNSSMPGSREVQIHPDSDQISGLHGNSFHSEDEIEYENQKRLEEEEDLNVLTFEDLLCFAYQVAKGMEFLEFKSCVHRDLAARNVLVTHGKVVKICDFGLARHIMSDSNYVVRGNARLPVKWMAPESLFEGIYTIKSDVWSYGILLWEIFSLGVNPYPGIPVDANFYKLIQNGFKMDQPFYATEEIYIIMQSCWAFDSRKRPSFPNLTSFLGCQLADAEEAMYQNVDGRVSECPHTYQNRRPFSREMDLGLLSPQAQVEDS
Outline: as §1

[8] = biological target: T7, kinases (Homo sapiens, UniProt P00519, M351T)
T7 construct: purchased Eurofins/DiscoveRx; host or cells: E. coli BL21-derived host (T7 phage display) for most kinases; HEK-293 for the rest
Outline: as §1

[9] = biological target: T8, kinases (Homo sapiens, UniProt P07949)
T8 construct: purchased Eurofins/DiscoveRx; host or cells: E. coli BL21-derived host (T7 phage display) for most kinases; HEK-293 for the rest
Outline: as §1

[10] = biological target: T9, kinases (Homo sapiens, UniProt P07949, M918T)
T9 construct: purchased Eurofins/DiscoveRx; host or cells: E. coli BL21-derived host (T7 phage display) for most kinases; HEK-293 for the rest
Outline: as §1

T3 sequence (P10721 26-976 V559D): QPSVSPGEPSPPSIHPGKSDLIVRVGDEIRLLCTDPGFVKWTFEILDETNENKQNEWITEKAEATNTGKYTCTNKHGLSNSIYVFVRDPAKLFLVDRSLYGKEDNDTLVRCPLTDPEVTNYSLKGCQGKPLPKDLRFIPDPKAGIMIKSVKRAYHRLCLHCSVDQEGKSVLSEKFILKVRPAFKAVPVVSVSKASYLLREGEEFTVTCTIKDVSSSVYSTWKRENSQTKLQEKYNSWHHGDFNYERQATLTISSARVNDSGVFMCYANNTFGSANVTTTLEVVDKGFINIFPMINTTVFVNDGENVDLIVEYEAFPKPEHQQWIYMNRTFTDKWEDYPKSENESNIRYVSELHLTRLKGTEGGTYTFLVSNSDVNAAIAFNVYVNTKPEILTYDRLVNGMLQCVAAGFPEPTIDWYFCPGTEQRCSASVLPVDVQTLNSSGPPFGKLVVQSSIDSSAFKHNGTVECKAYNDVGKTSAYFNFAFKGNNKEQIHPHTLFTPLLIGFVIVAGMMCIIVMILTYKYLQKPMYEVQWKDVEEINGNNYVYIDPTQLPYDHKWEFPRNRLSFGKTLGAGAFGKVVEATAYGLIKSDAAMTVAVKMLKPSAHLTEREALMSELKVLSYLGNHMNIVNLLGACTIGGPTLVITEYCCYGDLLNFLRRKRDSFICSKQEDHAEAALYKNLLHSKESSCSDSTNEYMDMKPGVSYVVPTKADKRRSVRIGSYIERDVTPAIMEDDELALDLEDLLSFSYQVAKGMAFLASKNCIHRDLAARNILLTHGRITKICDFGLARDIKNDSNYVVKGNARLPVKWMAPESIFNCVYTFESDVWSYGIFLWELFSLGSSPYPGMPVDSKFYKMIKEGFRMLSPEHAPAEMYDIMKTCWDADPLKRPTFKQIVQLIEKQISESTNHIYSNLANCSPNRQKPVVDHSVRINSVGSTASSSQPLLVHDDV
T4 sequence (P00533 25-1210): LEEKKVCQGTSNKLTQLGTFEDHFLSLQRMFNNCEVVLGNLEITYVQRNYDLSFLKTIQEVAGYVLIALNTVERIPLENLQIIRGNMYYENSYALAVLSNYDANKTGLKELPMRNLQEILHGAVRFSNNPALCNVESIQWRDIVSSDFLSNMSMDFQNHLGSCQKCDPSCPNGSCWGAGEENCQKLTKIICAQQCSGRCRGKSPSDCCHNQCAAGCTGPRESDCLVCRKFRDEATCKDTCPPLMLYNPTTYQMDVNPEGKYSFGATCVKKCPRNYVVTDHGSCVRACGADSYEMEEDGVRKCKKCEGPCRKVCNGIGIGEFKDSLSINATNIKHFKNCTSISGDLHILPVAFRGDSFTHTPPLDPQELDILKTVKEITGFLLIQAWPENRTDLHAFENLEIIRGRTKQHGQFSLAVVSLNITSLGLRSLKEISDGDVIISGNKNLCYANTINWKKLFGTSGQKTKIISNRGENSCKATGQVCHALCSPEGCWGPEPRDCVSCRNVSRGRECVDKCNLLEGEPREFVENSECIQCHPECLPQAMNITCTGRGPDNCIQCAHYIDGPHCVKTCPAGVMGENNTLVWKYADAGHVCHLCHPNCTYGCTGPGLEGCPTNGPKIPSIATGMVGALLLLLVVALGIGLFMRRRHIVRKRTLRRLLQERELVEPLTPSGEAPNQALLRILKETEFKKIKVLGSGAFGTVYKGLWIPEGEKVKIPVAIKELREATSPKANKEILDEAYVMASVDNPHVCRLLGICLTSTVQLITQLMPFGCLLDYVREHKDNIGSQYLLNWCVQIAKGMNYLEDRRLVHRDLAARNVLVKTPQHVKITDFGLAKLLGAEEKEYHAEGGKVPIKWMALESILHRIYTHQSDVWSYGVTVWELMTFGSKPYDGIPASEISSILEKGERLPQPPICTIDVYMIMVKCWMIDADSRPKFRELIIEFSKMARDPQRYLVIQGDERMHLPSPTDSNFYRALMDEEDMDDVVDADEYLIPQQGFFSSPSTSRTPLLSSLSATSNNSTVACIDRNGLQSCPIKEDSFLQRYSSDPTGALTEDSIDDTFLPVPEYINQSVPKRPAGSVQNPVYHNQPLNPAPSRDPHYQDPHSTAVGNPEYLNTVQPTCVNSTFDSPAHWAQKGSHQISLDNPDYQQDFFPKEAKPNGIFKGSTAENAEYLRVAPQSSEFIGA
T8 sequence (P07949 29-1114): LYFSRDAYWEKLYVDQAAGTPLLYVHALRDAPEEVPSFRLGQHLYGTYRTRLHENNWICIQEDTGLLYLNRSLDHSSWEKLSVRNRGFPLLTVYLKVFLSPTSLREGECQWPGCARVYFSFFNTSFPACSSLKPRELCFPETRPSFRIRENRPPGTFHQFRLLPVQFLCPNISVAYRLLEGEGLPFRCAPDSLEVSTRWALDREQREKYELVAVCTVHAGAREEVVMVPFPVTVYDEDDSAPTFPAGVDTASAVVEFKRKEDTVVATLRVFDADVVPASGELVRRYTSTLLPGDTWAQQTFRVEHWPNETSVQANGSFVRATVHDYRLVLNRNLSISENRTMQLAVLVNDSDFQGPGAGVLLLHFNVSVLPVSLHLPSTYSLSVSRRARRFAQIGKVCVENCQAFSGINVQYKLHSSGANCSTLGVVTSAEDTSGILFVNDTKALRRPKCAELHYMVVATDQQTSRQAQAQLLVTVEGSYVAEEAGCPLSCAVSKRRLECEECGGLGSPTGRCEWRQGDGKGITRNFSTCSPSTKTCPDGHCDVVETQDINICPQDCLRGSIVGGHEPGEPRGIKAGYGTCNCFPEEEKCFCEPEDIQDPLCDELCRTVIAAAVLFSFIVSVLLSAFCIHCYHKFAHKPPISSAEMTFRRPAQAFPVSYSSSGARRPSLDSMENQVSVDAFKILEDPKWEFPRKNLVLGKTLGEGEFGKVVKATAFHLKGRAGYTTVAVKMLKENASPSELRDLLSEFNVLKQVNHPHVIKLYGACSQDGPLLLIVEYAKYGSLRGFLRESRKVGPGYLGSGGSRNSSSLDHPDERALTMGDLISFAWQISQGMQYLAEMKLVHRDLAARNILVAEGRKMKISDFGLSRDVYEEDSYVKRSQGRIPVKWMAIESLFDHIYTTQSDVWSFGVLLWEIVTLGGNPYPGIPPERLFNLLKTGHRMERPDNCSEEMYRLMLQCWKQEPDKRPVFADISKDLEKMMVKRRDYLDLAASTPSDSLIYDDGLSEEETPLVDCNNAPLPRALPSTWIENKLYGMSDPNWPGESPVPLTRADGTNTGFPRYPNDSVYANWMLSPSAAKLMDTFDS
T5 sequence (P10721 26-976 A829P): as the sequence (P10721 26-976 V559D) above, with D534V, A804P counted along it
T2 sequence (P42684 whole entry): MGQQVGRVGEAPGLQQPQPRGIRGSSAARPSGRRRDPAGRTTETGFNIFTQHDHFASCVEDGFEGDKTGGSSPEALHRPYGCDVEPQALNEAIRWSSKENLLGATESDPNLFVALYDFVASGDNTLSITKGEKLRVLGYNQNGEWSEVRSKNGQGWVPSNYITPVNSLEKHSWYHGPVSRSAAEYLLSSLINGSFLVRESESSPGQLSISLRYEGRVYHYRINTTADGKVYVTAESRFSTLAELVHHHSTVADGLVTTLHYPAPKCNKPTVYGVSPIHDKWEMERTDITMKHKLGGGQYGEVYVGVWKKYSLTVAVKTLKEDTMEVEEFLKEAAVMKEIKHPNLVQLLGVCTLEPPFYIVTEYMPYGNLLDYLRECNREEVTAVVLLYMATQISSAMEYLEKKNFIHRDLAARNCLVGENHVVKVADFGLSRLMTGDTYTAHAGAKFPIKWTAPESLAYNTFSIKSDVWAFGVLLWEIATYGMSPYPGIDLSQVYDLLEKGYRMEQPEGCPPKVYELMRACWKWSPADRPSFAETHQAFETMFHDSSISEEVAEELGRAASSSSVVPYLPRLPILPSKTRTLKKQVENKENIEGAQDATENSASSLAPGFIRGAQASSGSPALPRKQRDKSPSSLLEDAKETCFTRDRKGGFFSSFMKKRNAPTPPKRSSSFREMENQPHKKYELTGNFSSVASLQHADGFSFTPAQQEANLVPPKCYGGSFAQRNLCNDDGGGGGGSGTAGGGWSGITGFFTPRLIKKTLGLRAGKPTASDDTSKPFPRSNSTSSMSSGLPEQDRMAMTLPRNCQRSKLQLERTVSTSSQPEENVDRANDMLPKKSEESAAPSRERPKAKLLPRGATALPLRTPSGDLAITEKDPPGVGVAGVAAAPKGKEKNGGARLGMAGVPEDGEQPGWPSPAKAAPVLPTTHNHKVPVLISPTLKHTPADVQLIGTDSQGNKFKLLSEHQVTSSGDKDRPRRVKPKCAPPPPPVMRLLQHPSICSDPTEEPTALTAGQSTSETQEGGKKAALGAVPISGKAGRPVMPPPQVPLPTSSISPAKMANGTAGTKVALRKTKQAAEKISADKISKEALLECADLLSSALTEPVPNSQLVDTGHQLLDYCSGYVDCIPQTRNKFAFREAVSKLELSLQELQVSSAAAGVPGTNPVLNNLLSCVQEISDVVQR
T1 sequence (P10721 26-976 L576P): as the sequence (P10721 26-976 V559D) above, with D534V, L551P counted along it
T9 sequence (P07949 29-1114 M918T): as the sequence (P07949 29-1114) above, with M890T counted along it

| SMILES | % Ctrl, KIT(L576P) ([1]; KIT(L576P)) [% Ctrl] | % Ctrl, ABL2 ([2]; ABL2) [% Ctrl] | % Ctrl, KIT(V559D) ([3]; KIT(V559D)) [% Ctrl] | % Ctrl, EGFR ([4]; EGFR) [% Ctrl] | % Ctrl, EGFR(L747-E749del, A750P) ([5]; EGFR(L747-E749del, A750P)) [% Ctrl] | % Ctrl, EGFR(L747-S752del, P753S) ([5]; EGFR(L747-S752del, P753S)) [% Ctrl] | % Ctrl, EGFR(L747-T751del, Sins) ([5]; EGFR(L747-T751del, Sins)) [% Ctrl] | % Ctrl, FLT3(ITD) ([5]; FLT3(ITD)) [% Ctrl] | % Ctrl, FLT3(ITD, D835V) ([5]; FLT3(ITD, D835V)) [% Ctrl] | % Ctrl, FLT3(ITD, F691L) ([5]; FLT3(ITD, F691L)) [% Ctrl] | % Ctrl, KIT(A829P) ([6]; KIT(A829P)) [% Ctrl] | % Ctrl, FLT3(D835H) ([7]; FLT3(D835H)) [% Ctrl] | % Ctrl, ABL1(M351T)-phosphorylated ([8]; ABL1(M351T)-phosphorylated) [% Ctrl] | % Ctrl, RET ([9]; RET) [% Ctrl] | % Ctrl, RET(M918T) ([10]; RET(M918T)) [% Ctrl] | further results |
| --- | --- | --- | --- | --- | --- | --- | --- | --- | --- | --- | --- | --- | --- | --- | --- | --- |
| Cc1cc2c([nH]1)/C=C1\C(=O)Nc3ccc(cc31)-c1ccnn1CCNCCNC2=O [Ex. 43, [19a(20)Z]-2-methyl-5,6,7,8,9,10-hexahydro-15,17-(ethanediylidene)pyrazolo[1,5-g]dipyrrolo[3,4-k:2′,3′-n][1,4,7]triazacyclohexadecine-4,19(1H,18H)-dione] | 100 | 100 | 100 | 61 | 89 | 86 | 85 | 100 | 38 | 47 | 77 | 93 | 78 | 85 | 95 |  |
| Cc1cc2c([nH]1)/C=C1\C(=O)Nc3cnc(cc31)-c1cn[nH]c1CNCCN(C)C2=O [Ex. 55, [3a(4)Z]-6,9-dimethyl-9,10,11,12,13,14-hexahydro-17,1-(azenometheno)pyrazolo[4,3-m]dipyrrolo[3,2-f:3′,4′-i][1,4]diazacyclopentadecine-3,8(2,5H)-dione] |  |  |  |  |  |  |  |  |  |  |  |  |  |  |  | % Ctrl, KIT(L576P) ([1]; target KIT(L576P)): 17 % Ctrl; % Ctrl, ABL2 ([2]; target ABL2): 58 % Ctrl; % Ctrl, KIT(V559D) ([3]; target KIT(V559D)): 55 % Ctrl; % Ctrl, EGFR ([4]; target EGFR): 59 % Ctrl; % Ctrl, EGFR(L747-E749del, A750P) ([5]; target EGFR(L747-E749del, A750P)): 82 % Ctrl; % Ctrl, EGFR(L747-S752del, P753S) ([5]; target EGFR(L747-S752del, P753S)): 56 % Ctrl; % Ctrl, EGFR(L747-T751del, Sins) ([5]; target EGFR(L747-T751del, Sins)): 66 % Ctrl; % Ctrl, FLT3(ITD) ([5]; target FLT3(ITD)): 0.3 % Ctrl; % Ctrl, FLT3(ITD, D835V) ([5]; target FLT3(ITD, D835V)): 1.2 % Ctrl; % Ctrl, FLT3(ITD, F691L) ([5]; target FLT3(ITD, F691L)): 0.1 % Ctrl; % Ctrl, KIT(A829P) ([6]; target KIT(A829P)): 39 % Ctrl; % Ctrl, FLT3(D835H) ([7]; target FLT3(D835H)): 2.7 % Ctrl; % Ctrl, ABL1(M351T)-phosphorylated ([8]; target ABL1(M351T)-phosphorylated): 3.7 % Ctrl; % Ctrl, RET ([9]; target RET): 4.2 % Ctrl; % Ctrl, RET(M918T) ([10]; target RET(M918T)): 0.6 % Ctrl |
| Cc1cc2c([nH]1)/C=C1\C(=O)Nc3ccc(cc31)O[C@@H](C)COCCN(C)C2=O [Ex. 92, [10S,16a(17)Z]-2,5,10-trimethyl-6,7,9,10-tetrahydro-1H-12,14-(ethanediylidene)dipyrrolo[3,2-i:3′,4′-l][1,4,7]dioxazacyclopentadecine-4,16(5H,15H)-dione] | 87 | 43 | 91 | 98 | 91 | 55 | 98 | 45 | 8.3 | 9.2 | 100 | 32 | 54 | 63 | 59 |  |
